Results on three molecules are retold here after US20130030001A1 (priority 2008, published 2013).

The target in data set [1] is T1, human muscarinic acetylcholine M3 receptor (Homo sapiens, UniProt P20309).
T1 construct: expressed in transfected cells; host or cells: CHO-K1 (Chinese Hamster Ovary) cell membranes
Nature of the data set: biochemical. The class given is binding.

Data set [2] is described as follows: in vitro. To be noted: human, plasma, pH 7.4.

Each structure is given as a SMILES string. Some results are limits rather than exact numbers.

T1 sequence (P20309 whole entry): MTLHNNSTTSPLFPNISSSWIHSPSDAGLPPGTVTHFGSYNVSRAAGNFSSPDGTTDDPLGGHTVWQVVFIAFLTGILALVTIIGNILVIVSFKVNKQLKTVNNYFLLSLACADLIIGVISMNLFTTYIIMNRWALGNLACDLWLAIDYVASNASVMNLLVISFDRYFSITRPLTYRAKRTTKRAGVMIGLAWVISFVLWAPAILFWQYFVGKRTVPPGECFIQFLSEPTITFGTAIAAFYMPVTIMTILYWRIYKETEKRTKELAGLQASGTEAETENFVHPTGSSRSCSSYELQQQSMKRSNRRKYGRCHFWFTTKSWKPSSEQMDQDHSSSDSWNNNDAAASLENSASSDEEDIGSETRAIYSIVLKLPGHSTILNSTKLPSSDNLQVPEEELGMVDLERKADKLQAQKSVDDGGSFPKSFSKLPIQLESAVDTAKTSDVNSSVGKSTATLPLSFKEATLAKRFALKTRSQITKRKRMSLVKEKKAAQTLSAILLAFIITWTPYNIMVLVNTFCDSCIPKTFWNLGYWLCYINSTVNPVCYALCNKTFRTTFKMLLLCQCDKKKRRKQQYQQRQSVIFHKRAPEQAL

In data set [1] (M3 binding IC50), `O=C(C[N+]12CCC(CC1)[C@@H](OC(=O)C1(c3cccs3)CCCCCC1)C2)Nc1cnccn1` [Example 11, (R)-1-(Pyrazin-2-ylcarbamoylmethyl)-3-(1-thiophen-2-yl-cycloheptanecarbonyloxy)-1-azonia-bicyclo[2.2.2]octane bromide] came in with an IC50 of less than 2 nM. The molecule further gave a fraction unbound in data set [2] of 0.048.
With `O=C(C[N+]12CCC(CC1)[C@@H](OC(=O)C1(c3cccc(F)c3)CCCCCC1)C2)Nc1ccon1` [Example 13, (R)-3-[1-(3-Fluoro-phenyl)-cycloheptanecarbonyloxy]-1-(isoxazol-3-ylcarbamoylmethyl)-1-azonia-bicyclo[2.2.2]octane bromide], half-maximal inhibition in data set [1] (pIC50) (IC50) required 0.0794 nM. In addition, the fraction unbound in data set [2] is 0.068.
In data set [1] (M3 binding IC50), `O=C(C[N+]12CCC(CC1)[C@@H](OC(=O)C1(c3ccccc3)CCCCCC1)C2)Nc1ccccc1` [Example 21, (R)-1-Phenylcarbamoylmethyl-3-(1-phenyl-cycloheptanecarbonyloxy)-1-azonia-bicyclo[2.2.2]octane bromide] displayed an IC50 of less than 2 nM. The same molecule had a free fraction (fraction unbound) in data set [2] of 0.006.

As a reminder, the IC50 is the point on the concentration scale where inhibition reaches its midpoint. Read a high IC50 as a need for much substance. What is called fraction unbound is the share of the substance not bound to proteins or other matrix. Read a low fraction unbound as extensive binding.
